# Source: patent publication US10617668B2, “Pharmaceutical formulations” (Janssen Pharmaceutica NV, priority 2010, dated 2020)
# Experiment: In vivo pharmacokinetics of oral formulations in healthy human subjects
# Procedure: The three dose levels included 25 mg (representative formulation listed in Table 1.2), 200 mg (representative formulation listed in Table 1.3) and 400 mg of the drug compound.
compound,measurement,setting,value
Cc1ccc(C2O[C@H](CO)[C@@H](O)[C@H](O)[C@H]2O)cc1Cc1ccc(-c2ccc(F)cc2)s1 (stereo partly drawn) [compound of Formula (I-S)],mean AUCinf values across formulations and food conditions,"all doses (25 mg, 200 mg and 400 mg), fed or fasting",comparable
same,effect of food on the extent of bioavailability,"human subjects, fed versus fasted",no significant effect
same,half-life,"human, plasma, oral, all treatment regimens regardless of formulation and food intake, read-out: mean t1/2",8 to 12 h
